The values that follow come from patent publication US9896718B2, “Herbicide tolerant cotton event pDAB4468.18.07.1” (Dow AgroSciences LLC, priority 2012, dated 2018).

Read-outs that look alike come from different tables or passages of the source.

The test system of data set [1] is non-transformed cotton. To be noted: rates much lower than the lowest rate tested (1120 g ae/ha); known; cited from earlier work.
The test system of data set [2] is cotton event pDAB4468.18.07.1. Put plainly: Agronomic characterization in field trials with and without herbicide application. The conditions noted are these: standard field application rates, 2010 field trials. The data set is classed as in vivo, Gossypium hirsutum. An excerpt: The agronomic characteristics of cotton event pDAB4468.18.07.1 were quantified in field trials conducted across geographically different locations throughout the cotton belt in 2010. These studies compared the agronomic performance of cotton event pDAB4468.18.07.1 (with and without applications of the herbicides 2,4-D and glufosinate) to the non-transgenic near-isoline control, Coker 310. No agronomically meaningful unintended differences were observed between cotton event pDAB4468.18.07.1 and the Coker 310 control plants. […] Additionally, the agronomic performance of cotton event pDAB4468.18.07.1 was not altered as a result of the application of the herbicides, 2,4-D and glufosinate, as compared to the cotton event pDAB4468.18.07.1 plants which were not sprayed with the herbicide treatments. […]
Seeds of cotton event pDAB4468.18.07.1 and seeds of the near-isoline control line, Coker 310, were planted at a rate of 80 seeds per 20 ft row with a row spacing of 34-38 inches (86.36 cm-96.52 cm). […] The measured agronomic characteristics were equivalent for cotton event pDAB4468.18.07.1 as compared to the Coker 310 near-isoline control plants for all of the agronomic characteristics measured and statistically analyzed. […]

Data set [3] relates to cotton event pDAB4468.18.07.1. Kind of data set: Tolerance to 2,4-D in field trials (percent visual injury after postemergence application). The conditions noted are these: for Percent visual injury: postemergence, 2-4 leaf cotton, field. The data set is classed as in vivo, Gossypium hirsutum. Here is the method:
The application of 2,4-D on cotton plants at this stage of development represents a herbicide application timing typically utilized to achieve satisfactory weed control by cotton growers.
2,4-D tolerance was measured by assessing cotton plants for injury at 0-1 day after application (DAA), 7-8 DAA, 12-16 DAA, and 24-32 DAA. Measurements for the 0-1 day time increment were taken from 6-24 hours after the application. […] The ratings were a composite score for any herbicide symptomology including epinasty, chlorosis, leaf necrosis and plant death. Herbicide symptomology present at 0-1 DAA was primarily epinasty and symptoms at later evaluations were primarily chlorosis and necrosis.
(§1) Field trials were conducted at eleven locations across the United States in typical cotton producing areas of Alabama, Arkansas, California, Georgia, Louisiana, Mississippi, North Carolina, South Carolina, and Tennessee. Trials were designed with four replications per treatment. Each replication was separated by a bare-soil alley 10-15 feet wide. Plot size for individual treatments was 2 rows by 20 feet long with rows typically spaced 36-40 inches apart. Experimental treatments consisted of cotton event pDAB4468.18.07.1 sprayed with 2,4-D amine (Weedar 64™, NuFarm, Burr Ridge, Ill.) at either 0, 1120, 2240, or 4480 grams acid equivalent per hectare (g ae/ha) applied in 15 gallons per acre of final spray solution. A non-transformed cotton comparator treatment was not included in these experiments since treatment with 2,4-D at rates much lower than the lowest rate tested (1120 g ae/ha) are known to result in plant death.

Data set [4] concerns cotton event pDAB4468.18.07.1. The conditions noted are these: for % Injury: cotton event pDAB4468.18.07.1, 3 leaf stage. Here is the method:
The tolerance of cotton event pDAB4468.18.07.1 to postemergence applications of the pyridyloxyacetic acid herbicides, triclopyr and fluroxypyr, was studied in greenhouse trials. Herbicide tolerance was assessed following a single postemergence application of triclopyr or fluroxypyr.
Seeds from cotton event pDAB4468.18.07.1 were heat treated in a water bath at 82.5° C. for 1 minute and then planted in metro mix 360 media and grown in a greenhouse. The temperatures in the greenhouse averaged 27° C. and the photoperiod was set at 16 hours of light and eight hours of dark, with maximum light intensity. Plants were allowed to grow until the 3 leaf stage of development and a non-randomized study was conducted with three replications and three treatments for each herbicide. Plants were sprayed in a track sprayer calibrated to deliver 187 L/ha of the commercial formulations of triclopyr (Garton 4™, Dow AgroSciences, Indianapolis, Ind.) and fluroxypyr (Starane™, Dow AgroSciences, Indianapolis, Ind.). A non-transformed Coker 310 variety of cotton was used as a negative control. Visual injury assessment was taken 3 DAA (days after application) and 11 DAA comparing each rate of herbicide. Injury was assessed visually as percentage of epinastic cotton-plant foliage using a linear percentage scale […] where 0% represents no visible herbicide injury and 100% represents plant death.

Data set [5] has as its system non-transformed Coker 310 variety of cotton. Kind of data set: Tolerance to triclopyr and fluroxypyr in greenhouse trials (percent visual injury), negative control plants. The class given is in vivo. The conditions noted are these: 3 leaf stage.
Protocol: Seeds from cotton event pDAB4468.18.07.1 were heat treated in a water bath at 82.5° C. for 1 minute and then planted in metro mix 360 media and grown in a greenhouse. The temperatures in the greenhouse averaged 27° C. and the photoperiod was set at 16 hours of light and eight hours of dark, with maximum light intensity. Plants were allowed to grow until the 3 leaf stage of development and a non-randomized study was conducted with three replications and three treatments for each herbicide. Plants were sprayed in a track sprayer calibrated to deliver 187 L/ha of the commercial formulations of triclopyr (Garton 4™, Dow AgroSciences, Indianapolis, Ind.) and fluroxypyr (Starane™, Dow AgroSciences, Indianapolis, Ind.). A non-transformed Coker 310 variety of cotton was used as a negative control. Visual injury assessment was taken 3 DAA (days after application) and 11 DAA comparing each rate of herbicide. Injury was assessed visually as percentage of epinastic cotton-plant foliage using a linear percentage scale (1-100%) where 0% represents no visible herbicide injury and 100% represents plant death.
The subject of data set [6] is cotton event pDAB4468.18.07.1. Put plainly: Tolerance to glufosinate in field trials (percent visual injury after postemergence application). The class given is in vivo, Gossypium hirsutum. The conditions noted are these: for Percent visual injury: postemergence, 6-8 leaf cotton, field. Here is the method: Glufosinate tolerance was measured by assessing cotton plants for injury at 2-4 days after application (DAA), 7-9 DAA, 13-19 DAA and 22-29 DAA. […] The ratings were a composite score for any herbicide symptomology including chlorosis, leaf necrosis, stunting and plant death. Herbicide symptomology (where present) was primarily chlorosis and necrosis.
as §1, with “glufosinate ammonium (Ignite 280 SL™, Bayer, Research Triangle, N.C.)” for “2,4-D amine (Weedar 64™, NuFarm, Burr Ridge, Ill.)”, “542, 1084,” for “1120, 2240,”, “2168” for “4480”, “glufosinate” for “2,4-D”, “(542” for “(1120”, “would be expected” for “are known”

On to `CNC.O=C(O)COc1ccc(Cl)cc1Cl` [2,4-D], for which the “result of treatment of non-transformed cotton” value in data set [1] is reported as “plant death”. The “agronomic performance of cotton event after herbicide application vs unsprayed plants” value in data set [2] is “not altered”. The “herbicide injury noted in the experiments” value in data set [3] (1120-4480 g ae/ha, with the exception of transient epinasty 0-1 DAA) was “no agronomically-significant herbicide injury”. Further, the Percent visual injury in data set [3] (1120 g ae/ha, 0-1 DAA) stood at 5.0%; in data set [3] (1120 g ae/ha, 7-8 DAA), 2.3%; in data set [3] (1120 g ae/ha, 12-16 DAA) it was 1.1%; in data set [3] (1120 g ae/ha, 24-32 DAA), 0.0%; in data set [3] (2240 g ae/ha, 0-1 DAA) it was 11.7%; in data set [3] (2240 g ae/ha, 7-8 DAA) it was 4.9%. Further, the Percent visual injury in data set [3] (2240 g ae/ha, 12-16 DAA) came to 2.7%; in data set [3] (2240 g ae/ha, 24-32 DAA), 0.4%; in data set [3] (4480 g ae/ha, 0-1 DAA), 21.0%; in data set [3] (4480 g ae/ha, 7-8 DAA), 15.1%; in data set [3] (4480 g ae/ha, 12-16 DAA) it was 8.0%; in data set [3] (4480 g ae/ha, 24-32 DAA), 2.2%. Moreover, the “crop injury beyond the 7-8 DAA evaluation interval” value in data set [3] (4480 g ae/ha (>4× rate required for broad spectrum weed control)) is “little crop injury”.

`Nc1c(Cl)c(F)nc(OCC(=O)O)c1Cl` [Fluroxypyr, fluroxypyr]: the “level of herbicide to which tolerance is provided” value in data set [4] (in vivo) was “up to 280 g ae/ha”.

`O=C(O)COc1nc(Cl)c(Cl)cc1Cl` [Triclopyr, triclopyr]: the “% Injury” value in data set [5] (140 g ae/ha, 3 DAA) was determined as 33.8 a %; in data set [5] (140 g ae/ha, 11 DAA), 36.3 b %; in data set [5] (280 g ae/ha, 3 DAA), 33.8 a %; in data set [5] (280 g ae/ha, 11 DAA) it was 40.0 ab %; in data set [5] (560 g ae/ha, 3 DAA), 36.3 a %; in data set [5] (560 g ae/ha, 11 DAA), 48.8 a %. Besides, the “% Injury” value in data set [4] (140 g ae/ha, 3 DAA, greenhouse) came to 11.8 b %; in data set [4] (140 g ae/ha, 11 DAA, greenhouse), 3.0 a %; in data set [4] (280 g ae/ha, 3 DAA, greenhouse), 17.0 a %; in data set [4] (280 g ae/ha, 11 DAA, greenhouse) it was 6.3 a %; in data set [4] (560 g ae/ha, 3 DAA, greenhouse) it was 19.3 a %; in data set [4] (560 g ae/ha, 11 DAA, greenhouse), 3.5 a %. Also, the “tolerance of the plants” value in data set [4] (3 DAA, greenhouse) was “moderate levels of tolerance”. In data set [4] (by 11 DAA, recovered from the initial epinastic response, greenhouse), the “tolerance of the plants compared to the non-transformed control” value was “robust tolerance”.

With `CP(=O)(O)CCC(N)C(=O)O` (stereo not shown) [glufosinate], the “agronomic performance of cotton event after herbicide application vs unsprayed plants” value in data set [2] is on record as “not altered”. For the same molecule, the “herbicide injury noted in the experiments” value in data set [6] (542-2168 g ae/ha, with the exception of transient chlorosis at 2168 g ae/ha at 2-4 & 7-9 DAA) is listed as “no agronomically-significant herbicide injury”. Further, the Percent visual injury in data set [6] (542 g ae/ha, 2-4 DAA) was 3.1%; in data set [6] (542 g ae/ha, 7-9 DAA) it was 2.3%; in data set [6] (542 g ae/ha, 13-19 DAA) it was 0.1%; in data set [6] (542 g ae/ha, 22-29 DAA) it was 0.1%; in data set [6] (1084 g ae/ha, 2-4 DAA) it was 7.6%; in data set [6] (1084 g ae/ha, 7-9 DAA), 4.8%. The Percent visual injury in data set [6] (1084 g ae/ha, 13-19 DAA) turned out to be 0.1%; in data set [6] (1084 g ae/ha, 22-29 DAA), 0.0%; in data set [6] (2168 g ae/ha, 2-4 DAA), 14.8%; in data set [6] (2168 g ae/ha, 7-9 DAA) it was 10.8%; in data set [6] (2168 g ae/ha, 13-19 DAA) it was 2.2%; in data set [6] (2168 g ae/ha, 22-29 DAA), 0.3%. In addition, the “crop injury beyond the 7-9 DAA evaluation interval” value in data set [6] (2168 g ae/ha (>4× rate required for broad spectrum weed control)) is “little crop injury”.
